Experimental findings from patent US20090104119A1, “Dendrimer Based Compositions And Methods Of Using The Same” (priority 2004, published 2009) are described below.

A short description of series [1]: Toxicity of dendrimer conjugates and free methotrexate in mice (body weight, histopathology). It counts as in vivo. The method, then:
(§1) Delivery of targeted nanoparticle therapeutic. Twice weekly, SCID mice with s.c. KB xenografts, starting on day 4 after tumor implantation, received via the tail vein an injection of either targeted or nontargeted conjugate containing methotrexate, a conjugate without methotrexate, free methotrexate, or saline as a control. The compounds were delivered in a 0.2 mL volume of saline per 20 g of mouse. The single dose of methotrexate delivered each time equaled 0.33 mg/kg. The higher doses of 1.67 and 3.33 mg/kg free methotrexate were also tested. The conjugates were delivered at equimolar concentration of methotrexate calculated based on the number of methotrexate molecules present in a nanoparticle. The conjugate without methotrexate was delivered at equimolar concentration of dendrimer. In the initial trial, six groups of mice with five mice in each group received up to 15 injections. In the follow-up trial, mice received up to 28 injections dependent on their survival. The body weights of the mice were monitored throughout the experiment as an indication of adverse effects of the drug. Histopathology of multiple organs was done at the termination of each trial and each time mouse had to be euthanized due to toxic effects or tumor burden. Tissues from lung, heart, liver, pancreas, spleen, kidney, and tumor were analyzed. Additionally, cells were isolated from tumors, stained with targeted fluorescein-labeled conjugate, and tested for the presence of folic acid receptors using flow cytometer.
Toxicity of dendrimer conjugates. […] No gross toxicity, either acutely or chronically up to 99 days, was observed regardless of whether the dendrimer conjugate contained methotrexate. The weight was monitored throughout the experiment and no loss of weight was observed; in fact, the animals gained weight. At each time point, a gross examination and histopathology of the liver, spleen, kidney, lung, and heart were done. No morphologic abnormalities were observed on the histopathology examination.
The remaining experimental groups had very uniform body weight fluctuations nonindicative of toxicity when compared with control groups with saline or conjugate without methotrexate.

Series [2] deals with KB cells. Nature of the series: Inhibition of cell growth by total cell protein. The method, then:
Cell culture and treatment. KB cells were maintained in folate-free medium containing 10% serum (See, e.g., Quintana et al, Pharm. Res. 19, 1310 (2002)) to provide extracellular FA similar to that found in human serum. Cells were plated in 12-well plates for uptake studies, in 24-well plates for cell growth analysis, and in 96-well plates for XTT assay. Cells were rinsed with FA-free medium containing dialyzed serum and incubated at 37° C. with dendrimer-drug conjugates for the indicated time periods and concentrations. KB cells were also maintained in RPMI medium containing 2 μM FA to obtain cells which express low FAR.
Evaluation of dendrimer cytotoxicity. Cell growth was determined by assay of the total protein in lysates of treated cells using a bicinchoninic acid reagent (PIERCE, and by XTT assay, using a kit from Roche.
Time course and dose dependent inhibition of cell growth. Previous studies have shown that MTX-induced cytotoxicity is detectable in vitro only if the medium is completely deprived of FA (See, e.g., Sobrero & Bertino, Int. J. Cell Cloning 4, 51 (1986)). The effect of the trifunctional dendrimers on cell growth was tested in cells incubated in a FA-deficient medium. Cells were treated with 300 nM conjugates (equivalent of 1500 nM MTX) or 1500 nM free MTX for 1-4 days, and cell proliferation was determined by estimation of cellular protein content. Cells were treated for 2 days with different concentrations of the conjugates or free MTX (the conjugate concentration is given as MTX equivalents, with 5 MTX per dendrimer molecule). KB cells which express high and low FAR were incubated with 30 nM of the dendrimers for 1 hr at 37° C., rinsed, and the fluorescence of cells was determined by flow cytometric analysis (See. e.g., FIG. 21, left panel).
KB cells were treated with 150 or 500 nM MTX in the presence or absence of equimolar concentrations of free FA for 24 h. […] The cells were rinsed to remove the drugs and incubated with fresh medium for an additional 6 d, and total cell protein was determined.

Series [3] relates to s.c. human KB xenografts. Briefly: Targeted drug delivery, tumor growth and survival in SCID mice with KB xenografts. The series is classed as in vivo, SCID CB-17 mice. The conditions noted are these: for effect on tumor growth: first trial. The method, then: Recipient animal and tumor model.
as §1
Targeted drug delivery to tumor cells through the folate receptor. The efficacy of different doses of conjugates was tested on SCID CB-17 mice bearing s.c. human KB xenografts and was compared with equivalent and higher doses of free methotrexate. Mice were maintained on the folic acid-deficient diet for 3 weeks before injection of the KB tumor cells to achieve circulating levels of folic acid that approach those in human serum and to prevent down-regulation of folate receptors on tumor xenografts (See, Mathias et al., J Nucl Med 29, 1579 (1998)). Six groups of SCID mice with five mice in each group were injected s.c. on one flank with 5×10^6 KB cells in 0.2 mL PBS suspension. The highest total dose of G5-FI-FA-MTX therapeutic used equals 55.0 mg/kg and is equivalent to a 5.0 mg/kg total cumulative dose of free methotrexate (FIG. 29). The therapeutic dose of the conjugate was compared with three cumulative doses of free methotrexate equivalent to 33.3, 21.7, and 5.0 mg/kg accumulated in 10 to 15 injections based on mouse survival. Saline and the conjugate without methotrexate (G5-FI-FA) were used as controls.

Series [4] deals with KB cells. Briefly: Inhibition of cell growth by XTT assay. The conditions noted are these: 1, 2 or 3 days. It counts as cell-based, human. The method, then: Cell culture and treatment.
Evaluation of dendrimer cytotoxicity.
Because the binding of the conjugate to KB cells reaches maximal uptake within 1 h (Quintana et al, 2002. Pharmaceutical Research 19: 1310-1316.), the effect of the G5-FI-FA-MTX on cell growth was initially tested by pre-incubation of cells with the conjugate for 1 h, followed by incubation in a drug-free medium for 5 d. […] When the cells were pre-incubated with dendrimers for 4 h, there was a modest decrease of about 10% in cell growth as determined by XTT assay. The cytotoxicity measurements were therefore done by incubation with the dendrimer for a minimum of 24 h, a pre-incubation time period shown to induce significant cytotoxicity.
The inhibition of cell growth induced by the conjugates was also tested by XTT assay which is based on the conversion of XTT to formazan by the active mitochondria of live cells (See, e.g., Roehm et al, J Immunol Methods 142, 257 (1991)).
As free FA blocks the uptake of the dendrimers as well as rescues cells from MTX-induced cytotoxicity, the effect of pre-incubation of cells with excess FA on the anti-proliferative effect of G5-FITC-FA-MTX was tested. KB cells were exposed to different concentrations of the conjugate or free MTX for 24 h in the absence or presence of 50 μM FA. The incubation medium was removed, the cells were rinsed and incubated with fresh medium for 5 additional days in the absence of the drugs, and the XTT assay was performed (See, e.g., FIG. 24, □, ▪, represents cells treated with MTX; Δ, ▴, represents cells treated with G5-FITC-FA-MTX).
The anti-proliferative effect of the MTX-conjugates was compared to conjugates that lacked either the FA or the FITC molecule. KB cells were incubated with 30 nM of the conjugates (=150 nM effective MTX concentration) for 24 h and the incubation medium was removed. The cells were rinsed and incubated for an additional 5 d in fresh medium in the absence of the drugs, and the XTT assay was performed.
In general terms: Tetrazolium dyes change colour on reduction, which living cells bring about.

In series [5] the test system is KB tumor. Briefly: Biodistribution of fluorescent dendrimer conjugates in tumor (confocal microscopy, flow cytometry). The settings on record: single-cell suspension from tumors, versus nontargeted. It counts as in vivo, mice. The method, then:
Biodistribution of fluorescent dendrimer conjugates. […] Flow cytometry analysis was done with single-cell suspension isolated from tumor. Tumor was crushed, cell suspension filtered through 70 μm nylon mesh (Becton Dickinson, Franklin Lakes, N.J.), and washed with in PBS. Samples were analyzed using an EPICS XL flow cytometer (Coulter, Miami, Fla.). As determined by prior propidium iodine staining, only live cells were gated for analysis. Data were reported as the mean channel fluorescence of the cell population.
For confocal microscope imaging, tissue was dissected, embedded in OCT, and frozen in 2-methyl-butane in a dry ice bath. Sections (15 μm) were cut on a cryostat, thaw mounted onto slides, and stored at −80° C. until stained. After staining, the slides were fixed in 4% paraformaldehyde, rinsed in phosphate buffer (0.1 mol/L; pH 7.2), and mounted in Prolong. The images were acquired using a Zeiss 510 metalaser scanning confocal microscope equipped with a ×40 Plan-Apo 1.2 numerical aperture (water immersion) objective with a correction collar. The confocal image was recorded as 512×512×48 pixels with a scale of 0.45×0.45×0.37 μm per pixel. Each image cube was optically cut into 48 sections, and the sections that cut through the nucleus and cytoplasm were presented.
Targeting and internalization of fluorescent dendrimer conjugate. […]

Regarding `CN(Cc1cnc2nc(N)nc(N)c2n1)c1ccc(C(=O)N[C@@H](CCC(=O)O)C(=O)O)cc1` [MTX, Methotrexate, reference compound], in series [1] (cumulative doses 33.3 and 21.7 mg/kg), the “time at which doses became lethal” value lay in the range of 32 to 36 days. Also, the “histopathology of the liver” value in series [1] (mouse, in vivo) was “advanced liver lesions, collections of inflammatory cells, and periportal inflammation”. Moreover, in series [1] (total accumulated dose equivalent to 5.0 mg/kg free methotrexate), the toxicity result is “nor free methotrexate at the same dose were toxic”. Besides, the “inhibition of cell growth (FIGS. 21 and 22)” value in series [2] (FA-deficient medium, 1-4 days, different concentrations) is “inhibited cell growth in a time- and dose-dependent fashion”. Also, the “growth inhibition, free MTX versus equimolar MTX in G5-FITC-FA-MTX” value in series [2] (below 1 μM) is “higher”. For the same compound, the “effect on tumor growth” value in series [3] (up to 15 injections, cumulative 5.0 mg/kg methotrexate equivalents or equimolar dendrimer) was “no effect on tumor growth”; in series [3] (cumulative 33.3 and 21.7 mg/kg) it was “affecting tumor growth”. Further, the “day by which all mice died” value in series [3] (second 99-day trial) is no more than 66 days. The “survivors at the termination of the trial” value in series [3] (second 99-day trial) is given as “no mice surviving”. In addition, in series [4], the “inhibition of cell growth, XTT” value was “time-dependent cytotoxicity”.
For G5-(Ac)82-(6-TAMRA)3-(FA)4 [G5-6T-FA], the “mean channel fluorescence of tumor cells, flow cytometry” value in series [5] is “higher”.
